What was measured:
[1] = system: various strains of skin microorganisms; settings: 0.5 mol/l (8.4% w/v) azelaic acid solution, 24 hours, all bacterial strains; cited from earlier work
[2] = ethanol and water; cited from earlier work
[3] = system: Mouse myoblast cell line (C2C12 cells); test: Myotube length in differentiating mouse myoblasts (muscle-potentiating efficacy), Wright-Giemsa staining; assay type: cell-based; settings: 100 μM azelaic acid for two days from the day differentiation began, vs DMSO control
Description: (§1) Mouse myoblast cell line (C2C12 cells) was purchased from ATCC (Manassas, Va., USA) and used. The purchased cell line was incubated in an incubator at 37° C., 5% CO2 using 10% fetal bovine serum medium (Gibco-BRL) and used for experiments. […] In order to identify muscle-potentiating efficacy, treatment with 100 μM azelaic acid (CAS Number 123-99-9, Sigma) was performed for two days from the day when differentiation began, and a control was treated with 100 μM dimethyl sulfoxide (DMSO; Sigma). […] Sigma) and 100 μM azelaic acid (CAS Number 123-99-9, Sigma) was performed for two days from the 4th day of differentiation. The cells were washed twice with phosphate buffered saline (PBS), and then fixed for 10 minutes with 100% methanol. […] Co., Ltd., Seoul, South Korea) that specifically stains myotubes. Stained myotubes were photographed at ×40 magnification using a fluorescence microscope (IX 71, Olympus) and analyzed using Image J software (USA). Six sections of each well were randomly selected and micrographed. Lengths of at least 100 myotubes from each well were analyzed (3 repetitions/group).

[4] = system: interleukin-1β, interleukin-6, and TNF-α; settings: human epidermal cells treated with 20 mM azelaic acid; cited from earlier work
rats = settings: oral administration; cited from earlier work
IGF1 = test: Real-time PCR mRNA expression in mouse myoblasts; assay type: cell-based; settings: azelaic acid treatment of dexamethasone-treated cells, vs Dexa
Description: (§2) Mouse myoblast cell line (C2C12 cells) was purchased from ATCC (Manassas, Va., USA) and used. The purchased cell line was incubated in an incubator at 37° C., 5% CO2 using 10% fetal bovine serum medium (Gibco-BRL) and used for experiments. When the cell line reached a confluency of about 80%, the cells were differentiated into myotubes using 2% horse serum medium (Gibco-BRL). In order to identify muscle-potentiating efficacy, treatment with 100 μM azelaic acid (CAS Number 123-99-9, Sigma) was performed for two days from the day when differentiation began, and a control was treated with 100 μM dimethyl sulfoxide (DMSO; Sigma). In order to identify muscle loss-inhibitory efficacy, combined treatment with 50 μM dexamethasone (dexa; Sigma) and 100 μM azelaic acid (CAS Number 123-99-9, Sigma) was performed for two days from the 4th day of differentiation.
(§3) 334 μl of Trizol solution was added per 1×10^7 cells of mouse myoblasts, and grinding was performed. Then, the resultant was centrifuged at 4° C. and 12,000×g for 10 minutes. The supernatant was transferred to a new tube. Then, 67 μl of chloroform was added thereto and vortexing was performed. Again, the supernatant was transferred to a new tube, and isopropanol was added so that a ratio of the supernatant to isopropanol was 1:1. After performing vigorous shaking 10 times, the tube was allowed to stand at room temperature for 15 minutes, and centrifuged at 12,000×g and 4° C. for 10 minutes.

MAFbx/Atrogin1 = test: Real-time PCR mRNA expression in mouse myoblasts; assay type: cell-based; settings: azelaic acid treatment of dexamethasone-treated cells, vs Dexa
Description: as §2, §3

MuRF1 = test: Real-time PCR mRNA expression in mouse myoblasts; assay type: cell-based; settings: azelaic acid treatment of dexamethasone-treated cells, vs Dexa
Description: as §2, §3

myostatin = test: Real-time PCR mRNA expression in mouse myoblasts; assay type: cell-based; settings: azelaic acid treatment of dexamethasone-treated cells, vs Dexa
Description: as §2, §3

p-p70S6K1 = test: Western blotting in mouse myoblasts; assay type: cell-based; settings: azelaic acid treatment of dexamethasone-treated cells, vs Dexa
Description: as §2, with “In order to identify muscle loss-inhibitory efficacy, combined treatment with 50 μM dexamethasone (dexa; Sigma) and 100 μM azelaic acid (CAS Number 123-99-9, Sigma) was performed for two days from the 4th day of differentiation.” left out
(§4) In order to perform Western blotting in cells, to each well from which the medium was removed was added a lysis buffer that contains 500 μL of 100 mM Tris-HCl, pH 7.4, 5 mM EDTA, 50 mM sodium pyrophosphate, 50 mM NaF, 100 mM orthovanadate, 1% Triton X-100, 1 mM phenylmethanesulfonyl fluoride, 2 μg/mL aprotinin, 1 μg/mL pepstatin A, and 1 μg/mL leupeptin, and the cells were lysed to obtain a lysate. […] Then, the middle layer was taken and proteins were quantified according to the Bradford method (Bio-Rad). 40 μg of the quantified proteins were electrophoresed on SDS polyacrylamide gel and then transferred to nitrocellulose membranes (Amersham, Buckinghamshire, UK).

p-4E-BP1 = test: Western blotting in mouse myoblasts; assay type: cell-based; settings: azelaic acid treatment of dexamethasone-treated cells, vs Dexa
Description: as §2, with “In order to identify muscle loss-inhibitory efficacy, combined treatment with 50 μM dexamethasone (dexa; Sigma) and 100 μM azelaic acid (CAS Number 123-99-9, Sigma) was performed for two days from the 4th day of differentiation.” left out
as §4

[5] = system: Mouse myoblast cell line (C2C12 cells); test: Myotube length in dexamethasone-treated mouse myoblasts (muscle loss-inhibitory efficacy), Wright-Giemsa staining; assay type: cell-based; settings: 100 μM azelaic acid combined with 50 μM dexamethasone for two days from the 4th day of differentiation
Description: as §1

[6] = system: nicotinamide adenine dinucleotide phosphate (NADP) oxidase; settings: cited from earlier work

SMILES: O=C(O)CCCCCCCC(=O)O [azelaic acid, nonanedioic acid]
- decreased viability of bacterial strains [1]: at least 40 fold
- solubility [2]: soluble
- increase in myotube length [3]: 62%
- mRNA expression and protein secretion of interleukin-1β, interleukin-6, and TNF-α by UVB [4]: inhibition
- LD50 (rats): 15,800 mg/kg
- expression of IGF1 gene (IGF1): significantly increased
- expression of MAFbx/Atrogin1 gene (MAFbx/Atrogin1): significantly decreased
- expression of MuRF1 gene (MuRF1): significantly decreased
- expression of myostatin gene (myostatin): significantly decreased
- amount of p-p70S6K1 protein (p-p70S6K1): significantly increased
- amount of p-4E-BP1 protein (p-4E-BP1): significantly increased
- increase in the myotube length which has decreased due to dexamethasone [5]: 62%
- reaction of NADP oxidase (antioxidant effect) [6]: inhibiting
